Patent US12679878B2, “CRF2 receptor agonists and their use in therapy” (SANOFI, priority 2020, dated 2026)
Read-outs that look alike come from different tables or passages of the source. Starred links: 1 amine or outer side, 2 acyl side, 3 side chain; linkers in the order of their positions; H or OH if unused. Non-standard residues stand in square brackets, D forms with d. Residues, ends and D or L forms follow the SMILES beside them. Groups on a side chain read outwards from the residue. *: point of attachment. C18 diacid = O=C(O)CCCCCCCCCCCCCCCCC(=O)*; C16 diacid = O=C(O)CCCCCCCCCCCCCCC(=O)*; γGlu = O=C(O)[C@H](CCC(=O)[*:2])N[*:1]; Palmitoyl = CCCCCCCCCCCCCCCC(=O)*; Aib = CC(C)(N)C(=O)O

Experiments:
CRF1R receptor = target: T1, CRF1R receptor (Homo sapiens, UniProt P34998); assay: cAMP activity at anti-target CRF1R, CHO-K1 cell line clone 2 (Example 19.10); assay type: cell-based; conditions: 100% = Sauvagine at 100 nM; CRF1R CHO-K1 clone 2
T1 construct: host or cells: CHO-K1 clone 2
T1 sequence (P34998 24-415): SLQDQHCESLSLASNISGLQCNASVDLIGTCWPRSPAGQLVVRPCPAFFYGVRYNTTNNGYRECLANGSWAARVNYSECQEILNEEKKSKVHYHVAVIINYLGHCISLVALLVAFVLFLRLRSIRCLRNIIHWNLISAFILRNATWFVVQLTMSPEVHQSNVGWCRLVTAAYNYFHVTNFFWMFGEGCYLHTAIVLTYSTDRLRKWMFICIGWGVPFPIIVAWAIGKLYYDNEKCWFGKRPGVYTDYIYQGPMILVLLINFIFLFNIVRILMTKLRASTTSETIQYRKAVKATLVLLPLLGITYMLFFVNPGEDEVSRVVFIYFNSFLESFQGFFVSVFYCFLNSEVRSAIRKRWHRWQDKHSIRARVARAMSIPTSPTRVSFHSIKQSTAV
Procedure: The CRF1R-overexpression CHO-K1 cell line clone 2 was purchased from PerkinElmer.
Cells were grown in a 10 cm dish at 37° C./5% CO2 in medium (F12 (Hams)/10% FBS/400 μg/ml G418) to near confluence. At that stage, cells were harvested, resuspended to 10 million/mL in culture medium without G418 and with 10% DMSO. 1 mL vial aliquots were slowly frozen to -80° C. in isopropanol and then transferred in liquid nitrogen for storage. These vials were used to run the experiment following the procedure reported 10 in the previous paragraph, except for the compound used in the control well to define the 100% activation (Sauvagine at 100 nM)

human CRF2α receptor = target: T2, human CRF2α receptor (Homo sapiens, UniProt Q13324); assay: cAMP agonism at human CRF2 α receptor in TeloHEAC cells (Example 7); assay type: cell-based; conditions: cAMP HTRF, TeloHEAC cells stably expressing human CRF2 α
T2 construct: expressed in transfected cells; host or cells: TeloHEAC
T2 sequence (Q13324 1-411): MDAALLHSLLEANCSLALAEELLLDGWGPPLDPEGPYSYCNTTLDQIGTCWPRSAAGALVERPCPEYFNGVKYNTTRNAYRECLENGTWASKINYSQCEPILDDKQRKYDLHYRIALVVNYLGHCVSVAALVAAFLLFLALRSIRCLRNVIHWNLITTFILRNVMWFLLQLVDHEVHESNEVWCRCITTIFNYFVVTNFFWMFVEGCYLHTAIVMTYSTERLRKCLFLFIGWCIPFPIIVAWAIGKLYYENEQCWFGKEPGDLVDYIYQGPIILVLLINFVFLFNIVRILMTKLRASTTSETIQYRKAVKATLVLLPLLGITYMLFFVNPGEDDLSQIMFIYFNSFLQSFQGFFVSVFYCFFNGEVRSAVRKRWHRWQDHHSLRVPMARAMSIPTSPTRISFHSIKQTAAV
Summary of the method: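 HTRF ratio 665/620 nm, read 1 h after lysis reagents, reports cAMP. Cells: thawed stocks, 2000/well, 30 min RT with compound in HBSS, 20 mM HEPES, 0 or 0.1% HSA, 2 mM IBMX. Activity normalised to UCN2 1000 nM = 100%; EC50 from half-maximal activation.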

[1] = 0% HSA, read-out: EC50 [nM], 0% HSA
[2] = 0.1% HSA, read-out: EC50 [nM], 0.1% HSA

Row | Structure (SMILES) | Emax (CRF1R receptor) [%] | EC50 (human CRF2α receptor; [1]) [nM] | EC50 (human CRF2α receptor; [2]) [nM]
1 | CC[C@H](C)[C@H](N)C(=O)N[C@H](C(=O)N[C@@H](CC(C)C)C(=O)N[C@@H](CO)C(=O)N[C@@H](CC(C)C)C(=O)N[C@@H](CC(=O)O)C(=O)N[C@@H](C(=O)N1CCC[C@H]1C(=O)N[C@H](C(=O)N[C@@H](CCCCN)C(=O)N[C@@H](CC(C)C)C(=O)N[C@@H](CCCCNC(=O)CC[C@H](NC(=O)CCCCCCCCCCCCCCC(=O)O)C(=O)O)C(=O)N[C@@H](CCC(N)=O)C(=O)N[C@@H](CCCCN)C(=O)N[C@@H](CC(C)C)C(=O)N[C@@H](CC(C)C)C(=O)N[C@@H](CCCCN)C(=O)N[C@@H](CCC(N)=O)C(=O)N[C@@H](CCC(=O)O)C(=O)N[C@@H](CCCNC(=N)N)C(=O)N[C@@H](CCC(N)=O)C(=O)N[C@@H](CCCNC(=N)N)C(=O)N[C@@H](CCCCN)C(=O)N[C@@H](CCC(=O)O)C(=O)N[C@@H](CCCNC(=N)N)C(=O)N[C@@H](CCC(=O)O)C(=O)N[C@@H](CCC(N)=O)C(=O)N[C@@H](C)C(=O)N[C@@H](CCC(=O)O)C(=O)N[C@@H](CCCCN)C(=O)N[C@@H](CC(N)=O)C(=O)N[C@H](C(=O)N[C@@H](CCCNC(=N)N)C(=O)N[C@H](C(=O)N[C@@H](CC(C)C)C(=O)N[C@@H](CCC(=O)O)C(=O)N[C@@H](CCCNC(=N)N)C(=O)N[C@H](C(N)=O)C(C)C)[C@@H](C)CC)C(C)C)[C@@H](C)O)C(C)C)C(C)C [SEQ ID NO: 222] (H-IVLSLD[dV]PTKLK([γGlu-C16 diacid])QKLLKQERQRKEREQAEKNVRILERV-NH2; N-terminus assumed) | 6.2 | – | –
2 | CCCCCCCCCCCCCCCC(=O)N[C@@H](CCC(=O)NCCCC[C@H](NC(=O)[C@H](CC(C)C)NC(=O)[C@H](CCCCN)NC(=O)[C@@H](NC(=O)[C@@H]1CCCN1C(=O)[C@H](NC(=O)[C@H](CC(=O)O)NC(=O)[C@H](CC(C)C)NC(=O)[C@H](CO)NC(=O)[C@H](CC(C)C)NC(=O)[C@@H](NC(=O)[C@@H](N)[C@@H](C)CC)C(C)C)C(C)C)[C@@H](C)O)C(=O)N[C@@H](CCC(N)=O)C(=O)N[C@@H](CCCCN)C(=O)N[C@@H](CC(C)C)C(=O)N[C@@H](CC(C)C)C(=O)N[C@@H](CCCCN)C(=O)N[C@@H](CCC(N)=O)C(=O)N[C@@H](CCC(=O)O)C(=O)N[C@@H](CCCNC(=N)N)C(=O)N[C@@H](CCC(N)=O)C(=O)N[C@@H](CCCNC(=N)N)C(=O)N[C@@H](CCCCN)C(=O)N[C@@H](CCC(=O)O)C(=O)N[C@@H](CCCNC(=N)N)C(=O)N[C@@H](CCC(=O)O)C(=O)N[C@@H](CCC(N)=O)C(=O)N[C@@H](C)C(=O)N[C@@H](CCC(=O)O)C(=O)N[C@@H](CCCCN)C(=O)N[C@@H](CC(N)=O)C(=O)N[C@@H](CCCCN)C(=O)N[C@@H](CCCNC(=N)N)C(=O)N[C@H](C(=O)N[C@@H](CC(C)C)C(=O)N[C@@H](CCC(=O)O)C(=O)N[C@@H](CCCNC(=N)N)C(=O)N[C@H](C(N)=O)C(C)C)[C@@H](C)CC)C(=O)O [SEQ ID NO: 223] (H-IVLSLD[dV]PTKLK([γGlu-Palmitoyl])QKLLKQERQRKEREQAEKNKRILERV-NH2; N-terminus assumed) | 57.3 | – | –
3 | CC[C@H](C)[C@H](N)C(=O)N[C@H](C(=O)N[C@@H](CC(C)C)C(=O)N[C@@H](CO)C(=O)N[C@@H](CC(C)C)C(=O)N[C@@H](CC(=O)O)C(=O)N[C@@H](C(=O)N1CCC[C@H]1C(=O)N[C@H](C(=O)N[C@@H](CCCCN)C(=O)N[C@@H](CC(C)C)C(=O)N[C@@H](CCCCNC(=O)CC[C@H](NC(=O)CCCCCCCCCCCCCCCCC(=O)O)C(=O)O)C(=O)N[C@@H](CCC(N)=O)C(=O)N[C@H](C(=O)N[C@@H](CC(C)C)C(=O)N[C@@H](CC(C)C)C(=O)N[C@@H](CCCCN)C(=O)N[C@@H](CCC(N)=O)C(=O)N[C@@H](CCC(=O)O)C(=O)N[C@@H](CCCNC(=N)N)C(=O)N[C@@H](CCC(N)=O)C(=O)N[C@@H](CCCCN)C(=O)NC(C)(C)C(=O)N[C@@H](CCC(N)=O)C(=O)N[C@@H](CCCNC(=N)N)C(=O)N[C@@H](CCC(=O)O)C(=O)N[C@@H](CCC(N)=O)C(=O)N[C@@H](C)C(=O)N[C@@H](CCC(=O)O)C(=O)N[C@@H](CCCCN)C(=O)N[C@@H](CC(N)=O)C(=O)N[C@@H](CCCCN)C(=O)N[C@@H](CCC(N)=O)C(=O)N[C@H](C(=O)N[C@@H](CC(C)C)C(=O)N[C@@H](C)C(=O)N[C@@H](CCC(N)=O)C(=O)N[C@H](C(N)=O)C(C)C)[C@@H](C)CC)[C@@H](C)CC)[C@@H](C)CC)C(C)C)C(C)C [compound 179] (H-IVLSLD[dV]PIKLK([γGlu-C18 diacid])QILLKQERQK[Aib]QREQAEKNKQILAQV-NH2; N-terminus assumed) | – | 0.03 | 1.88
4 | CC[C@H](C)[C@H](N)C(=O)N[C@H](C(=O)N[C@@H](CC(C)C)C(=O)N[C@@H](CO)C(=O)N[C@@H](CC(C)C)C(=O)N[C@@H](CC(=O)O)C(=O)N[C@@H](C(=O)N1CCC[C@H]1C(=O)N[C@H](C(=O)N[C@@H](CCCCN)C(=O)N[C@@H](CC(C)C)C(=O)N[C@@H](CCCCNC(=O)CC[C@H](NC(=O)CCCCCCCCCCCCCCCCC(=O)O)C(=O)O)C(=O)N[C@@H](CCC(N)=O)C(=O)N[C@H](C(=O)N[C@@H](CC(C)C)C(=O)N[C@@H](CC(C)C)C(=O)N[C@@H](CCCCN)C(=O)N[C@@H](CCC(N)=O)C(=O)N[C@@H](C)C(=O)N[C@@H](CCCNC(=N)N)C(=O)N[C@@H](CCC(N)=O)C(=O)N[C@@H](CCCCN)C(=O)NC(C)(C)C(=O)N[C@@H](CCC(N)=O)C(=O)N[C@@H](CCCNC(=N)N)C(=O)N[C@@H](C)C(=O)N[C@@H](CCC(N)=O)C(=O)N[C@@H](C)C(=O)N[C@@H](CCC(=O)O)C(=O)N[C@@H](CCCCN)C(=O)N[C@@H](CC(N)=O)C(=O)N[C@@H](CCCCN)C(=O)N[C@@H](CCCNC(=N)N)C(=O)N[C@H](C(=O)N[C@@H](CC(C)C)C(=O)N[C@@H](CCC(=O)O)C(=O)N[C@@H](CCCNC(=N)N)C(=O)N[C@H](C(N)=O)C(C)C)[C@@H](C)CC)[C@@H](C)CC)[C@@H](C)CC)C(C)C)C(C)C [compound 180] (H-IVLSLD[dV]PIKLK([γGlu-C18 diacid])QILLKQARQK[Aib]QRAQAEKNKRILERV-NH2; N-terminus assumed) | – | 0.05 | 1.74
5 | CC[C@H](C)[C@H](N)C(=O)N[C@H](C(=O)N[C@@H](CC(C)C)C(=O)N[C@@H](CO)C(=O)N[C@@H](CC(C)C)C(=O)N[C@@H](CC(=O)O)C(=O)N[C@@H](C(=O)N1CCC[C@H]1C(=O)N[C@H](C(=O)N[C@@H](CCCCN)C(=O)N[C@@H](CC(C)C)C(=O)N[C@@H](CCCCNC(=O)CC[C@H](NC(=O)CCCCCCCCCCCCCCCCC(=O)O)C(=O)O)C(=O)N[C@@H](CCC(N)=O)C(=O)N[C@H](C(=O)N[C@@H](CC(C)C)C(=O)N[C@@H](CC(C)C)C(=O)N[C@@H](CCCCN)C(=O)N[C@@H](CCC(N)=O)C(=O)N[C@@H](CCC(=O)O)C(=O)N[C@@H](CCCNC(=N)N)C(=O)N[C@@H](CCC(N)=O)C(=O)N[C@@H](CCCCN)C(=O)N[C@@H](CCCCN)C(=O)N[C@@H](CCC(N)=O)C(=O)N[C@@H](CCCNC(=N)N)C(=O)N[C@@H](CCC(N)=O)C(=O)N[C@@H](CCC(N)=O)C(=O)N[C@@H](C)C(=O)N[C@@H](CCC(=O)O)C(=O)N[C@@H](CCCCN)C(=O)N[C@@H](CC(N)=O)C(=O)N[C@@H](CCCCN)C(=O)N[C@@H](CCC(N)=O)C(=O)N[C@H](C(=O)N[C@@H](CC(C)C)C(=O)N[C@@H](C)C(=O)N[C@@H](CCC(N)=O)C(=O)N[C@H](C(N)=O)C(C)C)[C@@H](C)CC)[C@@H](C)CC)[C@@H](C)CC)C(C)C)C(C)C [compound 181] (H-IVLSLD[dV]PIKLK([γGlu-C18 diacid])QILLKQERQKKQRQQAEKNKQILAQV-NH2; N-terminus assumed) | – | 1.18 | 15.3
